# Entries after “also recorded” stand apart in the source; their conditions may differ.
# Tested on: C57/BL mice
# Assay: Acute effects in the tail-flick test (Experiment 2)
# Type: in vivo
# Settings: 100 mg/kg 2-PMPA i.p. 30 min before 1.5 or 3 mg/kg morphine s.c.
# Description: (§1) Male C57/BL mice (IMP, Lodz, Poland), 22-24 g of body weight were group-housed in the standard laboratory cages and kept in a temperature-controlled colony room (21+2° C.) with a 12-hr light/dark cycle (light on: 07:00, off: 19:00). Commercial food and tap water were available ad libitum. Each experimental group consisted of 7-28 mice per treatment. All mice were used only once.
# (§2) The intensity of the heat stimulus was adjusted so that the baseline tail-flick latency was ˜3 s. […] Each response assessment consisted of two separate measurements taken at different portions of the tail (spaced by 1.5-2 cm) and separated by 15 s. The mean of these responses was used for subsequent comparisons.
row,Structure (SMILES),effect on antinociceptive effects of morphine
1,"O=C(O)CCC(CP(=O)(O)O)C(=O)O (stereo not shown) [2-PMPA, 2-phosphonomethyl pentanedioic acid]",did not affect antinociceptive effects; also recorded: did not differ

# Same assay, conditions: 100 mg/kg of 2-PMPA i.p. + placebo
row,Structure (SMILES),tail-flick responses (AUC) compared to placebo+placebo
1,"O=C(O)CCC(CP(=O)(O)O)C(=O)O (stereo not shown) [2-PMPA, 2-phosphonomethyl pentanedioic acid]",did not affect tail-flick responses; also recorded: did not differ from placebo+placebo treatment

# Same assay, conditions: Mus musculus, sc; read-out: antinociceptive ED50 dose
row,Structure (SMILES),ED50
1,CN1CC[C@]23c4c5ccc(O)c4O[C@H]2[C@@H](O)C=C[C@H]3[C@H]1C5 [Morphine],3 mg/kg

# Biological target: NAALADase (Homo sapiens, UniProt Q04609)
# Assay: In vitro inhibition of NAALADase activity
# Type: biochemical
# Settings: not given
# Sequence of NAALADase (Q04609 whole entry): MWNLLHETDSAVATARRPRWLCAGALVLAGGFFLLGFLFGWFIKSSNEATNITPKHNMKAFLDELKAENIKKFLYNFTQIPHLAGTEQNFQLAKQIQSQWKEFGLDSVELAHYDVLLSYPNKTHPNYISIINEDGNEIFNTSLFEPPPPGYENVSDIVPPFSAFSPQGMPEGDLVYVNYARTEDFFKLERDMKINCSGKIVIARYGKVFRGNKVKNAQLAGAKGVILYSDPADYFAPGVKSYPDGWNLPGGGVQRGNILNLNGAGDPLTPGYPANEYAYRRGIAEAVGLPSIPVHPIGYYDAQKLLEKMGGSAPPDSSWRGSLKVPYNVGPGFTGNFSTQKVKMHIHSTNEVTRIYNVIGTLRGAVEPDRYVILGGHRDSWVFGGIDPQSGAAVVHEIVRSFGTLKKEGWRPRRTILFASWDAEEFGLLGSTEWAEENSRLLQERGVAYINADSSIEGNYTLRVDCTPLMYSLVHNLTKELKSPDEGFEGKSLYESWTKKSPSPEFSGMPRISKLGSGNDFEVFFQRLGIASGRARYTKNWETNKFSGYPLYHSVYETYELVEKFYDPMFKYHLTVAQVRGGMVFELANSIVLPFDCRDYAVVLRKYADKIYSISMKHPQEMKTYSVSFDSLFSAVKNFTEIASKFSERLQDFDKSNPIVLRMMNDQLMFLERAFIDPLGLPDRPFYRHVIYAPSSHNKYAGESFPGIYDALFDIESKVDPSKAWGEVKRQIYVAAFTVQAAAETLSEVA
row,Structure (SMILES),Ki
1,"O=C(O)c1cc(OCCS)cc(C(=O)O)c1 [5-(2-mercaptoethoxy)-1,3-benzenedicarboxylic acid]",14.5 µM
2,"O=C(O)c1ccc(OCCCSSCCCOc2ccc(C(=O)O)cc2C(=O)O)c(C(=O)O)c1 [4-[3-[[3-(2,4-dicarboxyphenoxy)-propyl]-dithio]propoxy]-1,3-benzenedicarboxylic acid]",3.75 µM
3,"O=C(O)c1ccc(S(=O)(=O)c2cc(C(=O)O)ccc2C(=O)O)cc1 [2-[(4-carboxyphenyl)sulfonyl]-1,4-benzenedicarboxylic acid]",2.37 µM
4,"O=C(O)c1ccc(CCS)c(C(=O)O)c1 [4-(2-mercaptoethyl)-1,3-benzenedicarboxylic acid]",0.116 µM
5,"O=C(O)c1ccc(C(=O)O)c(Sc2ccccc2C(=O)O)c1 [2-[(2-carboxyphenyl)thio]-1,4-benzenedicarboxylic acid]",0.572 µM
6,"O=C(O)c1cc(OCCCS)cc(C(=O)O)c1 [5-(3-mercaptopropoxy)-1,3-benzenedicarboxylic acid]",3.3 µM
7,"O=C(O)c1ccc(C(=O)O)c(S(=O)(=O)c2cc(C(=O)O)ccc2C(=O)O)c1 [2-[(2,5-dicarboxyphenyl)sulfonyl]-1,4-benzenedicarboxylic acid]",1.87 µM
8,"O=C(O)CNc1cc(C(=O)O)cc(C(=O)O)c1 [5-[(carboxymethyl)amino]-1,3-benzenedicarboxylic acid]",100 µM

# Same assay, conditions: read-out: IC50
row,Structure (SMILES),IC50
1,CC(C)(C)c1cc(CC(CCC(=O)NO)C(=O)O)cc(C(=O)O)c1 (stereo not shown) [3-tert-Butyl-5-(2-carboxy-4-hydroxycarbamoyl-butyl)-benzoic acid],0.0002 µM
2,"O=C(CCCSCc1ccc(-c2cccc(C(=O)O)c2)c(C(=O)O)c1)NO [4-(3-Hydroxycarbamoyl-propylsulfanylmethyl)-biphenyl-2,3′-dicarboxylic acid]",10.8 µM
3,O=C(O)c1cccc(CC(CCCSC(C(=O)NO)c2ccccc2)C(=O)O)c1 (stereo not shown) [3-[2-Carboxy-5-(hydroxycarbamoyl-phenyl-methylsulfanyl)-pentyl]-benzoic acid],1.12 µM
4,"O=C(O)c1cccc(-c2cccc(CC(CCCS)C(=O)O)c2)c1 (stereo not shown) [3′-(2-carboxy-5-mercaptopentyl)-[1,1′-biphenyl]-3-carboxylic acid]",0.00183 µM
5,O=C(O)c1cc(O)ccc1CCS [5-hydroxy-2-(2-mercaptoethyl)-benzoic acid],9.17 µM
6,O=C(O)c1ccc(Br)c(CS)c1 [4-bromo-3-(mercaptomethyl)-benzoic acid],3.2 µM
7,O=C(CSCC(Cc1cccc(C(=O)O)c1)C(=O)O)NO (stereo not shown) [3-(2-Carboxy-3-hydroxycarbamoylmethyl-sulfanylpropyl)-benzoic acid],3.07 µM
8,O=C(O)c1cccc(CC(CCCS)C(=O)O)c1 (stereo not drawn) [3-carboxy-alpha-(3-mercaptopropyl)-benzenepropanoic acid],0.017 µM
9,O=C(CSCCCC(Cc1cc(C(=O)O)ccc1Cl)C(=O)O)NO (stereo not shown) [3-(2-Carboxy-5-hydroxycarbamoylmethyl-sulfanylpentyl)-4-chloro-benzoic acid],16 µM
10,O=C(CSCCCC(Cc1cc(OCc2ccccc2)cc(C(=O)O)c1)C(=O)O)NO (stereo not shown) [3-Benzyloxy-5-(2-carboxy-5-hydroxycarbamoylmethyl-sulfanylpentyl)-benzoic acid],2.57 µM
11,CCC(SCCC(Cc1cccc(C(=O)O)c1)C(=O)O)C(=O)NO (stereo not shown) [3-[2-Carboxy-4-(1-hydroxycarbamoyl-propylsulfanyl)-butyl]-benzoic acid],19 µM
12,O=C(O)c1ccccc1OC(CCCS)C(=O)O (stereo not shown) [2-(1-carboxy-4-mercaptobutoxy)-benzoic acid],4.6 µM
13,O=C(NO)c1ccc(Oc2ccc(F)cc2)c([N+](=O)[O-])c1 [4-(4-Fluoro-phenoxy)-N-hydroxy-3-nitro-benzamide],≥ 100 µM
14,O=C(O)c1cc(Br)cc(CC(CCCS)C(=O)O)c1 (stereo not drawn) [3-bromo-5-carboxy-alpha-(3-mercaptopropyl)-benzenepropanoic acid],0.0025 µM
15,"O=C(O)c1cc(CC(CCCS)C(=O)O)ccc1-c1ccccc1 (stereo not shown) [4-(2-carboxy-5-mercaptopentyl)-[1,1′-biphenyl]-2-carboxylic acid]",0.018 µM
16,COc1cc(CC(CCCS)C(=O)O)cc(C(=O)O)c1 (stereo not drawn) [3-carboxy-alpha-(3-mercaptopropyl)-5-methoxy-benzenepropanoic acid],0.013 µM
17,O=C(CSCc1ccc(OCc2ccc(C(=O)O)cc2)c(C(=O)O)c1)NO,1.33 µM
18,O=C(O)Cc1ccc(OC(CCCS)C(=O)O)cc1 (stereo not shown) [4-(1-carboxy-4-mercaptobutoxy)-benzeneacetic acid],0.082 µM
19,COc1cc(COc2cccc(CCS)c2C(=O)O)ccc1C(=O)O [2-[(4-carboxy-3-methoxyphenyl)methoxy]-6-(2-mercaptoethyl)-benzoic acid],0.0105 µM

row,Structure (SMILES),IC50
1,O=C(CSCCC(Cc1cccc(C(=O)O)c1)C(=O)O)NO (stereo not shown) [3-(2-Carboxy-4-hydroxycarbamoylmethyl-sulfanylbutyl)-benzoic acid],4.9 µM
2,O=C(O)c1ccc(CC(CCCS)C(=O)O)cc1Br (stereo not drawn) [3-bromo-4-carboxy-alpha-(3-mercaptopropyl)-benzenepropanoic acid],0.146 µM
3,COC(=O)c1cc(C(=O)NO)ccc1OCc1ccccc1 [6-Benzyloxy-N-hydroxy-isophthalamic acid methyl ester],≥ 100 µM
4,CC(=O)c1cccc(OC(CCCS)C(=O)O)c1 (stereo not shown) [2-(3-acetylphenoxy)-5-mercapto-pentanoic acid],2.9 µM
5,"O=C(NO)c1ccc(O)c(C(=O)O)c1 [6,N-Dihydroxy-isophthalamic acid]",≥ 100 µM
6,O=C(O)c1c(CCS)cccc1OCc1ccccc1Cl [2-[(2-chlorophenyl)methoxy]-6-(2-mercaptoethyl)-benzoic acid],0.16 µM
7,O=C(O)Cc1cccc(OC(CCCS)C(=O)O)c1 (stereo not shown) [3-(1-carboxy-4-mercaptobutoxy)-benzeneacetic acid],0.064 µM
8,"CC(C)(C)CCOc1cccc(CCS)c1C(=O)O [2-(3,3-dimethylbutoxy)-6-(2-mercaptoethyl)-benzoic acid]",2.58 µM
9,"O=C(CSCCc1cccc(-c2cccc(C(=O)O)c2)c1C(=O)O)NO [3-(2-1-Hydroxycarbamoyl-methylsulfanyl-ethyl)-biphenyl-2,3′-dicarboxylic acid]",0.255 µM
10,N#Cc1ccccc1-c1ccc(CC(CCCS)C(=O)O)cc1 (stereo not drawn) [4-(2-cyanophenyl)-alpha-(3-mercaptopropyl)-benzenepropanoic acid],0.316 µM
11,O=C(O)C(CCCS)Cc1cccc(C(F)(F)F)c1 (stereo not drawn) [alpha-(3-mercaptopropyl)-3-(trifluoromethyl)-benzenepropanoic acid],4 µM
12,O=C(O)C(CCCS)Cc1ccc(-c2ccccc2)cc1 (stereo not drawn) [alpha-(3-mercaptopropyl)-4-phenyl-benzenepropanoic acid],0.229 µM
13,O=C(CSCCCC(Cc1cc(Oc2ccccc2)cc(C(=O)O)c1)C(=O)O)NO (stereo not shown) [3-(2-Carboxy-5-hydroxycarbamoylmethyl-sulfanylpentyl)-5-phenoxy-benzoic acid],3.25 µM
14,O=C(O)c1c(CCS)cccc1Oc1ccccc1 [2-(2-mercaptoethyl)-6-phenoxy-benzoic acid],1.15 µM
15,O=C(CSCCc1cccc(OCc2ccc(C(=O)O)cc2)c1C(=O)O)NO,14 µM
16,NC(=O)c1ccccc1CC(CCCS)C(=O)O (stereo not drawn) [2-(aminocarbonyl)-alpha-(3-mercaptopropyl)-benzenepropanoic acid],3.95 µM
17,O=C(O)c1cc(CC(CCCS)C(=O)O)cc(Oc2ccccc2)c1 (stereo not drawn) [3-carboxy-alpha-(3-mercaptopropyl)-5-phenoxy-benzenepropanoic acid],0.005 µM
18,O=C(O)C(CCCS)Cc1cccc(-c2ccccc2)c1 (stereo not drawn) [alpha-(3-mercaptopropyl)-3-phenyl-benzenepropanoic acid],0.181 µM
19,O=C(COc1cc(C(=O)O)cc(C(=O)O)c1)NO [5-Hydroxycarbamoylmethoxy-isophthalic acid],14.8 µM

# Tested on: over 100 different receptors, ion channels, transporters, and enzymes including NMDA, AMPA, metabotropic glutamate receptors and glutamate transporters
# Assay: not given
# Settings: cited from earlier work
row,Structure (SMILES),"affinity for over 100 different receptors, ion channels, transporters, and enzymes"
1,"O=C(O)CCC(CP(=O)(O)O)C(=O)O (stereo not shown) [2-PMPA, 2-phosphonomethyl pentanedioic acid]",no apparent affinity

# Tested on: C57/BL mice
# Assay: animal or person
# Type: in vivo
# Settings: 2-PMPA 50 or 100 mg/kg given prior to each dose of morphine
# Description: as §1, §2
row,Structure (SMILES),effect on the development of morphine tolerance
1,"O=C(O)CCC(CP(=O)(O)O)C(=O)O (stereo not shown) [2-PMPA, 2-phosphonomethyl pentanedioic acid]",attenuated the development of morphine tolerance

# Same assay, conditions: Mus musculus, sc, 24 h, read-out: Test #1 ED50 (morphine antinociceptive)
row,Structure (SMILES),ED50
1,CN1CC[C@]23c4c5ccc(O)c4O[C@H]2[C@@H](O)C=C[C@H]3[C@H]1C5 [Morphine],1.49 ± 0.26 mg/kg

# Same assay, conditions: Mus musculus, sc, 192 h, read-out: Test #2 ED50 (morphine antinociceptive)
row,Structure (SMILES),ED50
1,CN1CC[C@]23c4c5ccc(O)c4O[C@H]2[C@@H](O)C=C[C@H]3[C@H]1C5 [Morphine],8.85 ± 2.22 mg/kg

# Same assay, conditions: mouse, in vivo
row,Structure (SMILES),effect on the development of morphine tolerance
1,"CC12CC3CC(C)(C1)CC(N)(C3)C2 [Memantine, memantine]",produced an inhibition of morphine tolerance

# Tested on: not given
# Assay: not given
# Settings: in vivo; cited from earlier work
row,Structure (SMILES),development of morphine tolerance
1,"NC1(C(=O)O)CCC2C(C(=O)O)C21 (single isomer, unassigned; (+)) [LY354740, (+)-2-aminobicyclo [3,1,0] hexane-2,6-dicarboxylic acid]",inhibit the development of morphine tolerance
